Source: ChEMBL document CHEMBL1201862, “PubChem BioAssay data set” (2004)
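Compound exposure: 48 hours, 5 concentrations, 96-well plates. The concentration for 50% growth inhibition is given as GI50.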 Activity calls are given as the source filed them. Cut-off read from the data, not from the text of the source: active = GI50 up to about 1.1 µM and inactive = higher.

Key:
Assay in all cases: growth of human tumour cells (NCI), 48 h
NCI-H460 = system: NCI-H460
CAKI-1 = system: CAKI-1
SF-539 = system: SF-539
NCI/ADR-RES = system: NCI/ADR-RES
MDA-MB-231 = system: MDA-MB-231
MOLT-4 = system: MOLT-4
786-0 = system: 786-0
RPMI-8226 = system: RPMI-8226
SN12C = system: SN12C
CCRF-CEM = system: CCRF-CEM
Hs-578T = system: Hs-578T
HL-60 = system: HL-60
SNB-19 = system: SNB-19
U-251 = system: U-251
TK-10 = system: TK-10
KM12 = system: KM12
HOP-92 = system: HOP-92
SF-268 = system: SF-268
NCI-H23 = system: NCI-H23
DU-145 = system: DU-145
UO-31 = system: UO-31
LOX IMVI = system: LOX IMVI
SK-OV-3 = system: SK-OV-3
COLO 205 = system: COLO 205
OVCAR-4 = system: OVCAR-4
NCI-H522 = system: NCI-H522
UACC-62 = system: UACC-62
SR = system: SR
MDA-MB-435 = system: MDA-MB-435
K562 = system: K562
OVCAR-5 = system: OVCAR-5
T47D = system: T47D
Malme-3M = system: Malme-3M
HOP-62 = system: HOP-62
IGROV-1 = system: IGROV-1
RXF 393 = system: RXF 393
A498 = system: A498
HT-29 = system: HT-29
EKVX = system: EKVX
SNB-75 = system: SNB-75
SK-MEL-5 = system: SK-MEL-5
PC-3 = system: PC-3
SF-295 = system: SF-295
M14 = system: M14
HCT-116 = system: HCT-116
UACC-257 = system: UACC-257
OVCAR-3 = system: OVCAR-3
A549 = system: A549
NCI-H226 = system: NCI-H226
MCF7 = system: MCF7
SW-620 = system: SW-620
SK-MEL-2 = system: SK-MEL-2

Measured: GI50

CCCCCCN1C(=O)CC(=O)N(CCCCCC)S1(=O)=O
inactive: NCI-H460 31.5 µM | CAKI-1 22 µM | SF-539 19.8 µM | NCI/ADR-RES 21.7 µM | MDA-MB-231 17.1 µM | MOLT-4 23.3 µM | 786-0 18.5 µM | RPMI-8226 24.7 µM | SN12C 17.7 µM | CCRF-CEM 21.7 µM | Hs-578T 22 µM | HL-60 24.8 µM | SNB-19 41.9 µM | U-251 17.6 µM | TK-10 19.1 µM | KM12 28.1 µM | HOP-92 11.6 µM | SF-268 17.7 µM | NCI-H23 25.7 µM | DU-145 65.8 µM | UO-31 1.56 µM | LOX IMVI 13.6 µM | SK-OV-3 21.8 µM | COLO 205 17.9 µM | OVCAR-4 20 µM | NCI-H522 12.9 µM | UACC-62 17.3 µM | SR 26.9 µM | MDA-MB-435 22.3 µM | K562 40.6 µM | OVCAR-5 19.8 µM | T47D 64.3 µM | Malme-3M 23.5 µM | HOP-62 18.9 µM | IGROV-1 12.4 µM | RXF 393 16.4 µM | A498 14.7 µM | HT-29 21.6 µM | EKVX 20.8 µM | SNB-75 17.9 µM | SK-MEL-5 19.8 µM | PC-3 23 µM | SF-295 18.1 µM | M14 32.4 µM | HCT-116 29.6 µM | UACC-257 38.4 µM | OVCAR-3 21.4 µM | A549 35.2 µM | NCI-H226 26.6 µM | MCF7 36 µM | SW-620 19.1 µM | SK-MEL-2 12.7 µM
